Test results from patent publication US20090137493A1, “Inhibition of tumor metastases using protein kinase C (PKC) inhibitors” (priority 2007, published 2009).
Bridges are numbered along the chain shown (N, C = ends). Where no end group is shown, it is not given here.

Key:
4T1 tumor cells = experiment: Growth of primary tumors in vivo (number of tumor cells at primary site of injection); parameters: species or system mice; settings: animals injected with 4T1 tumor cells, FIG. 6A, versus saline
Description: FIG. 6A is a bar graph showing the affect of saline, the αV5-3-TAT conjugate peptide (αPKC), or the βIIV5-3-TAT conjugate peptide (βPKC) on the growth rate of primary tumors in vivo.
To determine if the effects observed with the α and βIIPKC peptide inhibitors was due to a decrease in metastasis as opposed to a decrease in primary tumor growth, animals injected with 4T1 tumor cells were treated with saline, the αV5-3-TAT conjugate peptide (αPKC), or the βIIV5-3-TAT conjugate peptide (βPKC) and the number of tumors cells at the primary site of injection were determined.

βIIPKC = molecular target: T1, βIIPKC (Mus musculus, UniProt P68404); experiment: Translocation of βIIPKC in tumor cells (immunoblot of cytosol and particulate fractions); type: in vivo; settings: FIG. 5B
T1 construct: endogenous in cells; host or cells: 4T1 murine mammary tumour cells grown as tumours in Balb/c mice
T1 sequence (P68404 1-673 isoform P68404-2): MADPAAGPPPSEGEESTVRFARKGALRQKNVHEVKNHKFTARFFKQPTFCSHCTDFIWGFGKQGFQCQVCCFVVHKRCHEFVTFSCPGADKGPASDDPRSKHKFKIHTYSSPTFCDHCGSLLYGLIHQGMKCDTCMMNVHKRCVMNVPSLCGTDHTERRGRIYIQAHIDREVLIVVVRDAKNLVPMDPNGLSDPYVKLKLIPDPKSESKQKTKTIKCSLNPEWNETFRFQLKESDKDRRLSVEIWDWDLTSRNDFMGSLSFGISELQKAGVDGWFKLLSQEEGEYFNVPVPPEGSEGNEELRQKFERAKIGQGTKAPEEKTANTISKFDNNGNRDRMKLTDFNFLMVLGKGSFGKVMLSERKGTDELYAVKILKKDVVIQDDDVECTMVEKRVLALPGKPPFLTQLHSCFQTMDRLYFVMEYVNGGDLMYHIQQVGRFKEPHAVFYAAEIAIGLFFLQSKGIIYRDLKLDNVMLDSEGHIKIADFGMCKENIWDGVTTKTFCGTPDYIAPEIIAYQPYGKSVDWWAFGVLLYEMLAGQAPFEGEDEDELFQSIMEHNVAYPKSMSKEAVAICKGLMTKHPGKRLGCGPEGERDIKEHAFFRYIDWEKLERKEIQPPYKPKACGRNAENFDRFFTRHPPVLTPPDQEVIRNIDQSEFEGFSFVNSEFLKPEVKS
Description: FIGS. 5A-5B are bar graphs showing the percentage of translocation of αPKC (FIG. 5A) and βIIPKC (FIG. 5B) […] in tumor cells treated with αV5-3-TAT peptide.
To further characterize inhibition of metastasis using the α and βIIPKC inhibitors, the percentage of translocation of αPKC (FIG. 5A) and βIIPKC (FIG. 5B), […] was measured.

[1] = tested on: MDA-MB-231 breast cancer cells; experiment: Cell migration/invasion assay through a HUVEC monolayer, MDA-MB-231; type: cell-based, human; settings: peptide 10 μM, re-applied every 2 hours for 10 hours
Text: (§1) FIGS. 14A and 14B are bar graphs showing the efficacy of TAT carrier peptide (TAT), αV5-3-TAT peptide (Alpha), βIIV5-3 peptide (Beta-2), and εV1-2 (Epsilon) in inhibiting the invasion of human MDA-MB-231 and MCF-7 breast cancer cells through a HUVEC monolayer. FIGS. 14C and 14D are bar graphs showing the efficacy of TAT carrier peptide (TAT) or αV5-3-TAT peptide in inhibiting the invasion of 4T1 (FIG. 11C) and MDA-MB-231 (FIG. 11D) cells.
as §1, with “14B show the results of a related experiment measuring” for “14B are bar graphs showing”, “εV1-2 peptide” for “εV1-2”, “14D show the results of a similar experiment” for “14D are bar graphs”
Cell Migration/invasion assay: Primary human endothelial cells (HUVEC's) were plated on top of a matrigel plug in trans-well plates. Once the cells had reached confluence (as determined by examination of a control well), 1×10^6 human breast cancer cells (MCF-7 or MDA-MB-231) expressing luciferase were added above the HUVEC cell layer. Where applicable, peptides were added to a final concentration of 10 μM and re-applied every 2 hours for 10 hours followed by further incubation. After 24-48 hours-incubation the HUVEC cell layer (and all other cells above the matrigel) were removed by scraping of the cell layer into the media and aspiration (repeated 3 times). The relative numbers of cancer cells that had crossed the HUVEC cell layer and entered the matrigel was then determined by bioluminescence detection of luciferase action following addition of luciferin substrate.

[2] = tested on: MCF-7 breast cancer cells; experiment: Wound healing (migration) assay, MCF-7; type: cell-based, human; settings: peptide 1 uM, re-applied every 2 h for 8 h
Description: FIGS. 13A-13D are micrographs showing the efficacy of TAT carrier peptide (TAT; FIG. 13A), αV5-3-TAT peptide (Alpha; FIG. 13B), βIIV5-3 peptide (Beta2; FIG. 13C), and εV1-2 (epsilon; FIG. 13D) on human MCF-7 breast cancer cell migration.
(§2) To investigate the role of PKC inhibitors in reducing the migration of tumor cells, in vitro migration assays were performed using MDA-MB-231 breast cancer cells (FIGS. 12A-12D), MCF-7 breast cancer cell (FIGS. 13A-13D), JC cells (FIGS. 15A-15D), and 4T1 cells (FIGS. 16A-16D), in the presence of TAT carrier peptide (TAT), αV5-3-TAT peptide (Alpha), βIIV5-3 peptide (Beta2), or εV1-2 peptide (Epsilon).
(§3) Wound healing assay: Human or mouse breast cancer cell lines were grown in 6-well plates until about 90% confluent. Cells were then grown in serum free media overnight, before media was changed to media +1% FBS and peptide PKC inhibitors added (1 uM), at the same time a pipette tip was drawn across the cell layer to create a scrape ‘wound’. PKC inhibitors were re-applied every 2 h for a total of 8 h, before cells were left for a further 12 h and then the scrape was examined under phase contrast microscopy.

[3] = tested on: MCF-7 breast cancer cells; experiment: Cell migration/invasion assay through a HUVEC monolayer, MCF-7; type: cell-based, human; settings: peptide 10 μM, re-applied every 2 hours for 10 hours
Text: as §1
FIGS. 14A and 14B show the results of a related experiment measuring the efficacy of TAT carrier peptide (TAT), αV5-3-TAT peptide (Alpha), βIIV5-3 peptide (Beta-2), and εV1-2 peptide (Epsilon) in inhibiting the invasion of human MDA-MB-231 and MCF-7 breast cancer cells through a HUVEC monolayer. […]
Cell Migration/invasion assay: Primary human endothelial cells (HUVEC's) were plated on top of a matrigel plug in trans-well plates. Once the cells had reached confluence (as determined by examination of a control well), 1×10^6 human breast cancer cells (MCF-7 or MDA-MB-231) expressing luciferase were added above the HUVEC cell layer. […] The relative numbers of cancer cells that had crossed the HUVEC cell layer and entered the matrigel was then determined by bioluminescence detection of luciferase action following addition of luciferin substrate.

JC cells = experiment: Wound healing (migration) assay, JC; type: cell-based, mouse; settings: peptide 1 uM, re-applied every 2 h for 8 h
Description: FIGS. 15A-15D are micrographs showing the efficacy of TAT carrier peptide (TAT; FIG. 15A), αV5-3-TAT peptide (Alpha; FIG. 15B), βIIV5-3 peptide (Beta2; FIG. 15C), and εV1-2 (Epsilon; FIG. 15D) on JC cell migration.
as §2, §3

[4] = tested on: 4T1 murine mammary cancer cells; experiment: Lung metastasis of luciferase-tagged 4T1 tumors in mice, imaging (relative light units); type: in vivo; settings: 4T1-luciferase tumor-bearing mice, osmotic pump, about 35 mg/kg/day, four weeks
Description: To determine whether specific PKC inhibitors could reduce the amount of PKC translocation/activation in vivo and thereby reduce tumor cell metastasis, animals were administered an αPKC peptide inhibitor, or appropriate control, via an implanted osmotic pump, following the injection of luciferase-tagged tumor cells. […] The data are summarized in the bar graph shown in FIG. 4, along with similar data relating to the use of a βIIV5-3-TAT conjugate peptide (βPKC; SEQ ID NO: 27). The extent of lung metastasis is expressed as relative light units.
Balb/c female mice (6 weeks old) were injected semi-orthotopically with 4T1 murine mammary cancer cells tagged with luciferase ([…] cells/100 μL). One week later, an osmotic minipump was implanted subcutaneously in each animal, for delivery of saline (control), TAT peptide (control, YGRKKRRQRRR, SEQ ID NO: 25), the peptide inhibitor αV5-3 (QLVIAN, SEQ ID NO: 6) attached via an N-terminal disulfide bond to TAT peptide (YGRKKRRQRRR-CC-QLVIAN, SEQ ID NO: 26).
In other experiments, the peptide inhibitor βIIV5-3 (QEVIAN, SEQ ID NO: 13) or εV1-2 (EAVSLKPT, SEQ ID NO: 20) is attached via an N-terminal disulfide bond to the TAT peptide (SEQ ID NOs: 27 and 28, respectively). The TAT control, αV5-3-TAT, βIIV5-3-TAT, or εV1-2-TAT conjugate peptides are administered at about 35 mg/kg/day for two and four weeks.
After two weeks of treatment with αV5-3-TAT, some animals were selected form imaging (IVIS® 29, Xenogen Corporation, Alameda, Calif.) and analysis, with the remaining animals imaged after four weeks of treatment.
FIG. 4 is a bar graph showing the extent of lung metastasis, expressed as relative light units (based on imaging as exemplified in FIG. 3), in tumor-bearing mice treated for four weeks with saline, the αV5-3-TAT conjugate peptide (αPKC), or the βIIV5-3-TAT conjugate peptide (βPKC). The extent of lung metastasis, quantified approximately by the relative light units, for mice treated with saline, the αPKC inhibitor, and the βIIV5-3 PKC inhibitor peptide is shown. The extent of lung metastases is reduced in the animals treated with the αPKC inhibitor.

[5] = tested on: MDA-MB-231 breast cancer cells; experiment: Wound healing (migration) assay, MDA-MB-231; type: cell-based, human; settings: peptide 1 uM, re-applied every 2 h for 8 h
Description: FIGS. 12A-12D are micrographs showing the efficacy of TAT carrier peptide (TAT; FIG. 12A), αV5-3-TAT peptide (Alpha; FIG. 12B), βIIV5-3 peptide (Beta2; FIG. 12C), and εV1-2 (Epsilon; FIG. 12D) on human MDA-MB-231 breast cancer cell migration.
as §2, §3

Substance | reduction in the number of cells at the primary tumor site (4T1 tumor cells) | reduction of βIIPKC translocation (βIIPKC) | invasion of MDA-MB-231 cells through a HUVEC monolayer [1] | migration of MCF-7 breast cancer cells ([2]; listed as βIIPKC inhibitor) | migration of MCF-7 breast cancer cells ([2]; listed as βIIV5-3 peptide) | invasion of MCF-7 cells through a HUVEC monolayer [3] | migration of JC cells (JC cells) | effect on lung metastasis compared to control animals (in words) [4] | effect on lung metastasis compared to control animals (in words) ([4]; listed as βPKC inhibitor) | migration of MDA-MB-231 breast cancer cells ([5]; listed as βIIPKC inhibitor) | migration of MDA-MB-231 breast cancer cells ([5]; listed as βIIV5-3 peptide)
YGRKKRRQRRR-CC-CGRNAE (YGRKKRRQRRRCCCGRNAE; disulfide (positions not given here); also: TAT conjugated via disulfide, Cys pair not given here) [βIIV5-3-TAT] | no reduction | did not significantly reduce | reduced migration and invasion | reduced migration and invasion | reduced | reduced migration and invasion | reduced | less pronounced effect | about half | reduced migration and invasion | reduced
YGRKKRRQRRR-CC-EAVSLKPT (YGRKKRRQRRRCCEAVSLKPT; disulfide 12-13 (inferred)) [εV1-2-TAT] |  |  | reduce invasion |  |  | reduce invasion |  |  |  |  | 
